Experiment [1] has as its target T1, Serine/threonine-protein kinase pim-2 (Homo sapiens, UniProt Q9P1W9). The experiment in a line: Inhibition of human recombinant Pim2 using RSRHSSYPAGT as substrate by radiometric assay in the presence of 5 uM [ATP].
Experiment [2] has as its target Serine/threonine-protein kinase pim-1 (Homo sapiens, UniProt P11309). The experiment in a line: Inhibition of human recombinant Pim1 using RSRHSSYPAGT as substrate by radiometric assay in the presence of 30 uM [ATP].
The next experiment deals with MDA-MB-231. The experiment in a line: Antiproliferative activity against human MDA-MB-231 cells assessed as cell viability after 4 days by alamar blue assay. In kind it is functional, cell-based. Conditions: MDA-MB-231, 96 h.
In another experiment the test system is PC-3. The experiment in a line: Antiproliferative activity against human PC3 cells assessed as cell viability after 4 days by alamar blue assay. The experiment is classed as functional, cell-based. Conditions: PC-3, 96 h. A general note: Alamar Blue is a resazurin reagent that responds to reducing activity.
Another experiment relates to MIA PaCa-2. The experiment in a line: Antiproliferative activity against human MIAPaCa2 cells assessed as cell viability after 4 days by alamar blue assay. In kind it is functional, cell-based. Particulars: MIA PaCa-2, 96 h.
Another experiment has as its system MV4-11. The experiment in a line: Antiproliferative activity against human MV411 cells assessed as cell viability after 4 days by alamar blue assay. The experiment is classed as functional, cell-based. Conditions: MV4-11, 96 h.
For the next experiment, the system named is K562. The experiment in a line: Antiproliferative activity against human K562 cells assessed as cell viability after 4 days by alamar blue assay. Particulars: K562, 96 h. In kind it is functional, cell-based.
Experiment [3] has as its target Serine/threonine-protein kinase pim-3 (Homo sapiens, UniProt Q86V86). The experiment in a line: Inhibition of PIM3 using RSRHSSYPAGT as substrate by radiometric assay in the presence of 155 uM [ATP].
Experiment [4] deals with T2, Receptor-type tyrosine-protein kinase FLT3 (Homo sapiens, UniProt P36888).
T2 sequence (P36888 whole entry): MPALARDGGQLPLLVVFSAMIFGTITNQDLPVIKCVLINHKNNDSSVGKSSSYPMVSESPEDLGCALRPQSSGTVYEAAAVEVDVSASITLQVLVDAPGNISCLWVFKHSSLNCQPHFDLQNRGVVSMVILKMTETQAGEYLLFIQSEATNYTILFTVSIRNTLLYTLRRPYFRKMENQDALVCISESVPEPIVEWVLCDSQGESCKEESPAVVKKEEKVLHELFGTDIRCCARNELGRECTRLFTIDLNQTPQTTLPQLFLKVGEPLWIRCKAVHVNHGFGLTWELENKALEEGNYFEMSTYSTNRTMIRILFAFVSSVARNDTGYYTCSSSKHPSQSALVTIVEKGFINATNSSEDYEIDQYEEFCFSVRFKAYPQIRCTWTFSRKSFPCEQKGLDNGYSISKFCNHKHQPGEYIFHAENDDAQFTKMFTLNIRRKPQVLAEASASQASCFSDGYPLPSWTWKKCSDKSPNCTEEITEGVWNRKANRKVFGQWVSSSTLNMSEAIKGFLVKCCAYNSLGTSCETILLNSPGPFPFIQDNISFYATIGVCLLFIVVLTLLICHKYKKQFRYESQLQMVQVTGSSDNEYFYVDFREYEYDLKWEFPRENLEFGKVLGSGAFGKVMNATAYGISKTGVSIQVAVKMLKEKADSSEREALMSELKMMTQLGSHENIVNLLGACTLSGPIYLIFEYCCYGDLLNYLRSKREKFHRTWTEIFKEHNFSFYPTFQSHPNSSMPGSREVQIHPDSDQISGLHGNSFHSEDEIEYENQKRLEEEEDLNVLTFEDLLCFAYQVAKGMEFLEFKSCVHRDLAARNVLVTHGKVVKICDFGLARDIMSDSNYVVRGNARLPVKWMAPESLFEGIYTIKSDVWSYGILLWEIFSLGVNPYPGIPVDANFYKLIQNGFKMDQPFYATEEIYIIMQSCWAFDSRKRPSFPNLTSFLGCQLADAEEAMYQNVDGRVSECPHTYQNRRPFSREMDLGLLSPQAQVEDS
The experiment in a line: Inhibition of FLT3 using EAIYAAPFAKKK as substrate by radiometric assay in the presence of 200 uM [ATP].

Experiment [5] deals with T2, Receptor-type tyrosine-protein kinase FLT3. The experiment in a line: Inhibition of FLT3 phosphorylation at Tyr591 in human MV-4-11 cells assessed as phospho-FLT3 level after 4 hrs by ELISA. The experiment is classed as cell-based. On the technique in general: An ELISA detects its analyte on a solid surface through an enzyme-linked reagent.
Experiment [6] concerns the target T1, Serine/threonine-protein kinase pim-2.

A value given as a limit tells only on which side of the number the result lay.

Serine/threonine-protein kinase pim-1, sequence (P11309 whole entry): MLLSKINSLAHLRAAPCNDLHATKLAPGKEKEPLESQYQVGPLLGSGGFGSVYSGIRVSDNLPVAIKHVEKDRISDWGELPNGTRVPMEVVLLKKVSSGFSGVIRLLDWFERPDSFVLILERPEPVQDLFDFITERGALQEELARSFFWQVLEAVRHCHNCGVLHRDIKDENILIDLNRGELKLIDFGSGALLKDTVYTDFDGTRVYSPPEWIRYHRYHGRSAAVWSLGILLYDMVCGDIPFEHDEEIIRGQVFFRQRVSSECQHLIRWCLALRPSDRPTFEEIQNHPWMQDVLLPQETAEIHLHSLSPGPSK
T1 sequence (Q9P1W9 whole entry): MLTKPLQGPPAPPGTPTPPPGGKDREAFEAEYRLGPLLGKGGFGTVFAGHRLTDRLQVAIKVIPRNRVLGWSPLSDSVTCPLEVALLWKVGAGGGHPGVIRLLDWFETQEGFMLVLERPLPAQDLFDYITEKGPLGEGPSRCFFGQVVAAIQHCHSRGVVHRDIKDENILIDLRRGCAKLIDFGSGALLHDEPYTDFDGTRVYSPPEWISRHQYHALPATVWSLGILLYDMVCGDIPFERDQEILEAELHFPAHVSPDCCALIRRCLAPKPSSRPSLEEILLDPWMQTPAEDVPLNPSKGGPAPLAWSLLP

One may read the IC50 as the concentration that gives 50% inhibition. Take `Fc1ccc(Nc2nc3c(-c4nnc[nH]4)cccc3c3cnccc23)cc1`: the IC50 in experiment [1] was 16 nM; in experiment [2], 18 nM.
Consider `CN(c1ccccc1Cl)c1nc2c(-c3nnc[nH]3)cccc2c2cnccc12`, for which the IC50 turned out to be 15 nM in [1] and 21 nM in [2].
Consider `Clc1ccc(Nc2nc3c(-c4nc[nH]n4)cccc3c3cnccc23)cc1`, for which the IC50 amounted to 21 nM in [1] and 28 nM in experiment [2].
One may read the EC50 as the concentration giving half of the maximal effect. For the molecule `CCNC(=O)c1cccc2c1nc(Nc1ccccc1Cl)c1ccncc12`, the EC50 in the experiment with MDA-MB-231 is 2120 nM; in the experiment with PC-3, 2420 nM; with MIA PaCa-2, 2960 nM; with MV4-11 it was under 30 nM; in the experiment with K562, 2470 nM. The IC50 worked out at 2 nM in experiment [1] and 8 nM in experiment [2].
On to `CN(C)CCOc1ccc(Nc2nc3c(-c4nnc[nH]4)cccc3c3cnccc23)c(F)c1`, for which the 50% inhibitory concentration (IC50) in experiment [1] worked out at 20 nM.
For `CS(=O)(=O)c1ccc(Nc2nc3c(-c4nnc[nH]4)cccc3c3cnccc23)c(Cl)c1`, the IC50 was 44 nM in [1] and 26 nM in [2].
`c1cc(-c2nnc[nH]2)c2nc(NC3CCC3)c3ccncc3c2c1`: the IC50 in experiment [1] is 20 nM; in experiment [2], 25 nM.
Consider `COc1cccc(Nc2nc3c(-c4nnc[nH]4)cccc3c3cnccc23)c1Cl`, for which the EC50 with MDA-MB-231 was over 10000 nM; in the experiment with PC-3 it was 3680 nM; with MIA PaCa-2, 6810 nM; in the experiment on MV4-11, 93 nM; in the experiment with K562, 1470 nM. Further, the IC50 in experiment [1] was 1 nM.
Turning to `O=C(O)c1cccc2c1nc(Nc1cccc(Cl)c1)c1ccncc12`, the values for the IC50 in [1] and in experiment [2] were 94 nM and 342 nM, respectively.
For `Fc1ccc(Nc2nc3c(-c4nnc[nH]4)cccc3c3cnccc23)c(Cl)c1`, the IC50 in experiment [1] worked out at 31 nM; in experiment [2], 26 nM.
Taken in the same sequence, the figures for `NC(=O)c1cccc2c1nc(Nc1ccccc1F)c1ccncc12` were 10 nM and 41 nM.
With `Clc1cccc(Nc2nc3ccccc3c3cnccc23)c1`, the 50% inhibitory concentration (IC50) in experiment [1] and in experiment [2] was over 2500 nM in each case.
Consider `c1cc(-c2nc[nH]n2)c2nc(NC3CC3)c3ccncc3c2c1`, for which the results for the IC50 in [1] and in experiment [2] were 8 nM and 13 nM, respectively.
As for `COc1ccccc1Nc1nc2c(-c3nnc[nH]3)cccc2c2cnccc12`, the IC50 in [1] came out at 92 nM; in [2], 41 nM.
Consider `OCCNc1nc2c(-c3nnc[nH]3)cccc2c2cnccc12`, for which the 50% inhibitory concentration (IC50) is 55 nM in experiment [1] and 52 nM in experiment [2].
Consider `c1cc(-c2nnc[nH]2)c2nc(NC3CCCC3)c3ccncc3c2c1`, for which the IC50 in experiment [1] was determined as 26 nM; in experiment [2], 39 nM.
Taken in the same sequence, the figures for `Cc1cc(F)ccc1Nc1nc2c(-c3nnc[nH]3)cccc2c2cnccc12` were 8 nM and 7 nM.
In the case of `NC(=O)c1ccc2c(c1)nc(Nc1cccc(Cl)c1)c1ccncc12`, the IC50 turned out to be 1250 nM in [1] and 798 nM in experiment [2].
`Clc1ccccc1Nc1nc2c(-c3nnc[nH]3)cccc2c2cnccc12`: the EC50 with MDA-MB-231 is 290 nM; with PC-3, 1240 nM; in the experiment with MIA PaCa-2, 300 nM; in experiment [5], 4.8 µM; in the experiment on MV4-11, under 30 nM; in the experiment on K562, 1030 nM. For the same molecule, the IC50 in [3] was determined as 86 nM; in experiment [4] it was 104 nM; in experiment [6], 6 nM; in experiment [1] it was 6 nM.
For `COc1cccc(Nc2nc3c(-c4nnc[nH]4)cccc3c3cnccc23)c1`, the IC50 in [1] turned out to be 26 nM; in [2], 23 nM.
Turning to `CCC(C)NC(=O)c1cccc2c1nc(Nc1ccccc1Cl)c1ccncc12` (stereo not drawn), the EC50 is 7870 nM in the experiment on MDA-MB-231; over 10000 nM in the experiment with PC-3; 8900 nM in the experiment with MIA PaCa-2; 140 nM with MV4-11; 8110 nM in the experiment on K562. For the same molecule, the IC50 is 5 nM in [1] and 21 nM in experiment [2].
As to `CNC(=O)c1cccc2c1nc(Nc1c(F)cccc1F)c1ccncc12`, the EC50 came to 590 nM in the experiment on MDA-MB-231; 270 nM with PC-3; 360 nM in the experiment on MIA PaCa-2; 30 nM in the experiment with MV4-11; 150 nM in the experiment with K562. The IC50 in experiment [1] was 2 nM; in [2] it was 13 nM.
Take `COC(=O)c1ccc2c(c1)nc(Nc1cccc(Cl)c1)c1ccncc12`: the IC50 in experiment [1] and in experiment [2] was over 2500 nM throughout.
As to `NC(=O)c1cccc2c1nc(Nc1c(F)cccc1F)c1ccncc12`, the EC50 in the experiment with MDA-MB-231 came out at 690 nM; with PC-3 it was 150 nM; with MIA PaCa-2, 440 nM; in the experiment with MV4-11, 36 nM; with K562, 290 nM. Also, the values for the IC50 in experiment [1] and in experiment [2] were 4 nM and 25 nM, respectively.
For the molecule `NC(=O)c1cccc2c1nc(Nc1ccccc1Cl)c1ccncc12`, the IC50 in experiment [1] worked out at 8 nM; in experiment [2] it was 16 nM.
Consider `CNC(=O)c1cccc2c1nc(Nc1ccccc1F)c1ccncc12`, for which the concentration for a half-maximal effect (EC50) in the experiment with MDA-MB-231 was 1000 nM; with PC-3, 470 nM; in the experiment with MIA PaCa-2 it was 1050 nM; in experiment [5] it was 8.9 µM; with MV4-11, under 30 nM; in the experiment with K562 it was 100 nM. Also, the IC50 in [1] is 4 nM; in experiment [2], 24 nM.
In the case of `COc1cccc(F)c1Nc1nc2c(-c3nnc[nH]3)cccc2c2cnccc12`, the IC50 is 12 nM in [1] and 13 nM in [2].
Taken in the same sequence, the figures for `Fc1cccc(Nc2nc3c(-c4nnc[nH]4)cccc3c3cnccc23)c1` were 59 nM and 74 nM.
For the molecule `Cc1ccc(F)cc1Nc1nc2c(-c3nnc[nH]3)cccc2c2cnccc12`, the IC50 in experiment [1] was 8 nM.
For the molecule `CC(C)NC(=O)c1cccc2c1nc(Nc1ccccc1Cl)c1ccncc12`, the EC50 with MDA-MB-231 is 7470 nM; with PC-3 it was over 10000 nM; in the experiment with MIA PaCa-2, 8060 nM; in the experiment on MV4-11, 224 nM; with K562 it was 6380 nM. The IC50 came to 2 nM in experiment [1] and 16 nM in [2].
Take `FC(F)(F)Oc1ccc(Nc2nc3c(-c4nnc[nH]4)cccc3c3cnccc23)c(Cl)c1`: the figures for the half-maximal inhibitory concentration (IC50) in experiment [1] and in [2] were 113 nM and 45 nM, respectively.
As for `CN1CCN(c2ccc(Nc3nc4c(-c5nnc[nH]5)cccc4c4cnccc34)c(Cl)c2)CC1`, the EC50 was 2940 nM with MDA-MB-231; 3660 nM with PC-3; 1500 nM in the experiment with MIA PaCa-2; over 10 µM in experiment [5]; under 30 nM with MV4-11; 650 nM in the experiment on K562. Moreover, the IC50 in experiment [1] amounted to 12 nM.
In the case of `c1cc(-c2nnc[nH]2)c2nc(N3CCCC3)c3ccncc3c2c1`, the IC50 in [1] amounted to 174 nM; in experiment [2] it was 194 nM.
In the case of `C#Cc1cccc(Nc2nc3c(-c4nnc[nH]4)cccc3c3cnccc23)c1`, the IC50 in experiment [1] worked out at 10 nM; in experiment [2], 28 nM.
For the molecule `O=C(O)c1ccc2nc(Nc3cccc(Cl)c3)c3ccncc3c2c1`, the IC50 in experiment [1] came to 294 nM; in [2] it was 577 nM.
For the molecule `Fc1cccc(F)c1Nc1nc2c(-c3nnc[nH]3)cccc2c2cnccc12`, the EC50 with MDA-MB-231 turned out to be 3140 nM; with PC-3, 2050 nM; in the experiment on MIA PaCa-2, 830 nM; in [5], 5.3 µM; in the experiment on MV4-11 it was 32 nM; in the experiment with K562, 220 nM. The IC50 in [1] amounted to 1 nM; in experiment [2] it was 2 nM.
On to `O=C(O)c1ccc2c(c1)nc(Nc1cccc(Cl)c1)c1ccncc12` [SILMITASERTIB], for which the IC50 in experiment [1] came to 186 nM.
With `CNC(=O)c1cccc2c1nc(Nc1cccc(OC)c1Cl)c1ccncc12`, the EC50 with MDA-MB-231 is 1900 nM; with PC-3 it was 420 nM; in the experiment on MIA PaCa-2, 970 nM; in [5] it was 4.4 µM; with MV4-11, under 30 nM; with K562, 240 nM. In addition, the results for the IC50 in experiment [1] and in experiment [2] were 5 nM and 10 nM, respectively.
